According to US20170319611A1, “METHODS AND COMPOSITIONS COMPRISING AKT INHIBITORS AND/OR PHOSPHOLIPASE D INHIBITORS” (Vanderbilt University, priority 2012, published 2017):

Legend:
[1] = tested on: LC3 and p62; assay: Autophagy marker immunoblot (LC3-II, p62), U87MG cells; type: cell-based, human; details: for LC3-II levels relative to vehicle control: serum-free DMEM, 10 nM bafilomycin A1, 10 μM EVJ, 5 μM JWJ or 10 μM MK2206 for 6 h; for accumulation of LC3-II in the presence of bafilomycin A1: 10 nM bafilomycin A1 30 min, then inhibitor 6 h
Description: Lysates were prepared by incubating cell pellets in lysis buffer (see immunoprecipitation procedure) for 30 minutes at 4° C. Protein concentrations were measuring using the Bio-Rad protein assay reagent. The antibodies used in the various studies as described herein, along with their vendors and catalog numbers are provided in Table 3.
In addition to apoptosis, cells undergo another type of programmed cell death requiring autophagy (Tsujimoto and Shimizu, (2005) Cell Death Differ. 12 Suppl 2, 1528-1534), a process known to be stimulated by nutrient or growth factor deprivation (Kroemer, G. et al., (2010) Mol. Cell 40, 280-293). Autophagy is a multistep process involving formation of double-membrane autophagosomes that engulf cytosolic components and deliver cargo to lysosomes for digestion and nutrient recycling (Ravikumar, B. et al., (2009) J. Cell Sci. 122, 1707-1711). In order to determine if autophagy was perturbed following PLD or Akt inhibitor (MK2206) (Hirai, H. et al., (2010) Mol. Cancer Ther. 9, 1956-1967) treatment, the expression levels of the well-characterized autophagy makers microtubule-associated protein 1A/1B-light chain 3 (LC3) and p62 were measured. Autophagasome number is frequently assessed by measuring conversion of cytosolic LC3-I to a membrane-associated, lipidated LC3-II which is readily measureable as a faster migrating species of LC3 during SDS-PAGE (Kabeya, Y. et al., (2000) EMBO J. 19, 5720-5728). The other marker, p62, is an LC3 and ubiquitin-binding protein, involved in the regulation of protein aggregates and is degraded by autophagy (Komatsu, M. et al., (2005) J. Cell Biol. 169, 425-434). Induction of autophagy and successful degradation of autophagosomes would thus be accompanied by a decrease in p62 levels. […] Fold change in immunoreactivity relative to vehicle control. ANOVA with Dunnett's post-hoc test was used to compare inhibitor treatment to vehicle control (**p<0.01).
To conclusively determine that flux, rather than autophagosome initiation, is regulated by PLC, LC3-II conversion in the presence of the lysosomal proton pump inhibitor bafilomycin A1, which prevents autophagosome fusion to lysosomes and inhibits degradation of autophagosomes, was measured. Thus, bafilomycin A1 is commonly used to discriminate the effects of a compound on autophagy initiation versus flux by assessing LC3-II levels in the presence of a test compound after clamping degradation of autophagosomes (Yamamoto, A. et al., (1998) Cell Struct. Funct. 23, 33-42).

[2] = target: T1, PLD2-Akt interaction (Homo sapiens, UniProt P31749); assay: In vitro protein-protein interaction assay, purified PLD2 and Akt; type: binding; details: purified proteins, 10 μM inhibitor in reaction mixture
T1 construct: 6xHis (N); made in house; host or cells: Sf21 insect cells (baculovirus)
T1 sequence (P31749 whole entry): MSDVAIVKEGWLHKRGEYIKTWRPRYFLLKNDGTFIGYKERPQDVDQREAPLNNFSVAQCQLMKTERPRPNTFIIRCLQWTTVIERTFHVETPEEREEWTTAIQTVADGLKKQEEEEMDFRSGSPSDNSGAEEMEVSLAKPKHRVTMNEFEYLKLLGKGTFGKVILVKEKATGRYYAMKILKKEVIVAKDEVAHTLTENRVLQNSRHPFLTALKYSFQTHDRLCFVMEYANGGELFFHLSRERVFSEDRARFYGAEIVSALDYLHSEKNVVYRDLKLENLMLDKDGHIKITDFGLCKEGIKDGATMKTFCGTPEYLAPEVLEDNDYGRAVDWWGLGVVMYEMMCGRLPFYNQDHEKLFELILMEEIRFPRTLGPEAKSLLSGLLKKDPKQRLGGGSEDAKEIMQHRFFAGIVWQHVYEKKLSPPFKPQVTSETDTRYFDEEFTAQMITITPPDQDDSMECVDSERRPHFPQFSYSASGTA
Description: 25 nM PLD2-PtS or PtS tag were incubated with 50 nM 6×His-Aktl for 2 h in 50 mM Tris pH 8.0, 0.01% Nonidet P-40, 150 mM NaCl, 0.5 mM EDTA, and 50 mg/mL avidin. Where indicated, 10 μM inhibitor was included in the reaction mixture. PtS-tagged proteins were captured by incubation with strep-tactin resin for 2 h.
Although proteins may co-IP from cell lysate, determining whether proteins form a direct interaction requires binding experiments with purified proteins. As described herein, recombinant Akt and PLD2 was then expressed and purified from Sf21 insect cells (FIG. 8C). […] Numbers indicate molecular weights in kilodaltons. […] Since PLD2 and Akt appear to interact directly, the PLD inhibitors were evaluated to determine whether they disrupted the protein-protein interaction as a potential mechanism by which PLD2 regulates activation of Akt in cells. As described herein, purified PLD2 and Akt were incubated in the presence of EVJ, JWJ, or the allosteric pan-Akt inhibitor, MK2206 (Hirai, H. et al., (2010) Mol. Cancer Ther. 9, 1956-1967) and proteins captured using affinity resin. […] Referring to FIG. 9B, the same procedure was used as in 9A, except 10 μM EVJ, JWJ, or Akt inhibitor MK2206 was included in the reaction mixture.

[3] = tested on: Akt; assay: Akt membrane recruitment (membrane isolation), U87MG cells; type: cell-based, human; details: overnight 5 μM JWJ
Description: U87MG cells were seeded in 150 mm tissue culture plates at 2.6×10^6 cells/plate (4 plates per condition) and allowed to adhere overnight. The following day, cells were washed and media replaced with DMEM+indicated inhibitor or vehicle and cells were treated for up to 12 h. Cells were washed twice in 1×PBS then scraped in homogenization buffer (20 mM HEPES pH 7.4, 1 mM EDTA, 250 mM sucrose). Cells were pelleted by centrifugation at 1,000×g for 4 minutes at 4° C. […] Lysate was collected dropwise then centrifuged at 2,000×g for 10 min to pellet unbroken cells, nuclei, and heavy debris. The supernatant was subsequently centrifuged at 100,000×g for 60 min. The supernatant was saved as the cytosolic fraction and the 100,000×g pellet was washed once by resuspension in lysis buffer then centrifuged again under the same conditions.
2.5%, 10%, 17.5%, 25%, and 30% iodixanol solutions were prepared by mixing the appropriate ratios of 50% iodixanol with homogenization buffer. […]
In order to understand the mechanism by which PtdOH regulates Akt activation, it was first determined whether PtdOH and PIP3 share a binding site on Akt. […] Akt binding to PtdOH and PIP3 was then assessed using a protein-lipid overlay assay. […] Bound Akt was determined using an Akt specific antibody. […] GST-Akt PH domain fusion proteins were purified from E. coli and lipid binding was again assessed using a protein-lipid overlay.

[4] = tested on: AMPK; assay: AMPK activation immunoblot, U87MG cells; type: cell-based, human; details: for AMPK activation (phosphorylation of threonine 172) / phosphorylation of acetyl-coA carboxylase (serine 79): 24 hours, 10 mM EVJ or 5 mM JWJ
Description: Another well-known regulator of autophagy is the adenosine monophosphate-activated protein kinase (AMPK). Changes in intracellular energy balance or metabolic stress are known to activate AMPK (Hardie, D. G. (2007) Nat. Rev. Mol. Cell Bio. 8, 774-785). AMPK serves as a metabolic checkpoint, acting to restore ATP levels through regulation of metabolic enzymes and inhibition of pro-growth anabolic pathways (Hardie, D. G. (2007) Nat. Rev. Mol. Cell Bio. 8, 774-785). […] U87MG cells were treated for 24 hours with […] before lysis and immunoblotting. AMPK activation was measured by assessing phosphorylation at threonine 172 and also by measuring activation of acetyl coenzyme A carboxylase (ACC) at serine 79.
Another AMPK substrate and component of the autophagasome initiation complex is Unc-51-like kinase 1 (ULK1). Several studies (Egan, D. F. et al., (2011) Science 331, 456-461; Kim, J. et al., (2011) Nature Cell Bio. 13, 132-141) have recently identified multiple AMPK sites on ULK1 that function to enhance initiation of autophagy. […] To determine whether the induction of autophagy through AMPK activation requires Akt, Aktl was silenced and then evaluated for effects of PLD inhibition on AMPK and ULK1 phosphorylation. Aktl was chosen to silence since Aktl phosphorylation was decreased following PLD inhibition in U87MG cells. […] U87MG cells were transfected with Aktl siRNA for 72 hours prior to cell lysis. Cells were treated with […] JWJ 24 hours prior to cell lysis.

[5] = tested on: myrAktl; assay: Akt phosphorylation immunoblot, myrAktl U87MG cells; type: cell-based, human; details: overnight, serum-free DMEM; 10 μM EVJ or 5 μM JWJ
Description: To confirm the observed effects on autophagy and cell death following PLD inhibition in glioma cells was due to the regulation of Akt by PLD2, a stable U87MG cell line was developed to expresses a constitutively active form of Akt under the transcriptional control of the tetracycline repressor protein (Yao, F. et al., (1998) Hum. Gene Ther. 9, 1939-1950). This Akt construct contains the myristoylation sequence from Src kinase (Kohn, A. D. et al., (1996) J. Biol. Chem. 271, 31372-31378) and is constitutively membrane associated and active. Without wishing to be bound by a particular theory, if PtdOH serves to enhance membrane docking of Akt then PLD inhibition should not decrease phosphorylation of myristoylated Akt (myrAkt) since this construct bypasses lipid recruitment signals for membrane association. […] Tetracycline inducible myrAktl-expressing U87MG cells, or parental cells, were seeded into media containing 0.1 ug/ml tetracycline and protein expression induced for approximately 24 hours. […] Cells were seeded and treated as in figure A and immunoblotted for phosphorylated and total AMPK. AMPK activation was quantitated by densitometric quantification of the phospho-AMPK band over the total AMPK band. Fold changes were calculated by normalizing the DMSO condition to 1 for each cell line. […] Referring to FIG. 23B, parental or myrAktl U87MG cells were treated with the indicated inhibitors as in 23A overnight before blotting for phosphorylated and total Akt.

[6] = tested on: PLD; assay: Endogenous PLD activity assay (PtdBuOH) in U87MG cells; type: cell-based, human
Description: Data is presented as the ratio of the predominant phosphatidylbutanol peaks to the internal standard. To generate concentration response curves, U87MG cells were serum starved for approximately 24 hours. Cells were treated with the indicated concentration of PLD inhibitor for 15 minutes prior to addition of n-butanol containing media and phospolipid extraction.
Cells were pretreated with inhibitors 30 min prior to measurement of PLD activity. Data is presented as the percent activity remaining after PLD inhibitor treatment relative to control.

| SMILES | LC3-II levels relative to vehicle control [1] | PLD2-Akt interaction [2] | accumulation of LC3-II in the presence of bafilomycin A1 [1] | AMPK activation (phosphorylation of threonine 172) [4] | phosphorylation of acetyl-coA carboxylase (serine 79) [4] | phosphorylated Akt in myrAktl U87MG cells [5] | further results |
| --- | --- | --- | --- | --- | --- | --- | --- |
| CO/C1=C\C(C)=C\[C@@H](C)[C@@H](O)[C@@H](C)C/C(C)=C/C=C/[C@H](OC)[C@@H]([C@@H](C)[C@@H](O)[C@H](C)[C@@]2(O)C[C@@H](O)[C@H](C)[C@@H](C(C)C)O2)OC1=O [Bafilomycin A1] | increased LC3-II levels relative to vehicle control |  |  |  |  |  |  |
| NC1(c2ccc(-c3nc4ccn5c(=O)[nH]nc5c4cc3-c3ccccc3)cc2)CCC1 [MK2206] | increased LC3-II levels relative to vehicle control | disrupted the PLD2-Akt interaction | no additional accumulation of LC3-II |  |  |  |  |
| O=C(NCCN1CCC2(CC1)C(=O)NCN2c1cccc(F)c1)c1ccc2ccccc2c1 [No. 1, N-(2-(1-(3-fluorophenyl)-4-oxo-1,3,8-triazaspiro[4.5]decan-8-yl)ethyl)-2-naphthamide] |  | detected even in the presence of PLD inhibitors | no additional accumulation of LC3-II | observed to increase | increased phosphorylation of acetyl-coA carboxylase | failed to reduce levels of phosphorylated Akt | membrane recruitment of Akt [3]: diminished; AMPK or ULK1 phosphorylation when Aktl is silenced ([4]; Aktl siRNA 72 hours, 5 mM JWJ 24 hours): does not appear to increase AMPK or ULK1 phosphorylation more than DMSO control |
| C[C@@H](CN1CCC(n2c(=O)[nH]c3cc(Br)ccc32)CC1)NC(=O)[C@@H]1C[C@@H]1c1ccccc1 [No. 2, (1R,2S)—N-((S)-1-(4-(5-bromo-2-oxo-2,3-dihydro-1H-benzo[d]imidazol-1-yl)piperidin-1-yl)propan-2-yl)-2-phenylcyclopropane carboxamide] |  | detected even in the presence of PLD inhibitors | no additional accumulation of LC3-II | observed to increase | increased phosphorylation of acetyl-coA carboxylase | failed to reduce levels of phosphorylated Akt | IC50 ([6]; U87MG cells, serum withdrawn 24 h, inhibitor pretreatment 30 min, read-out: IC50, attenuation of PLD activity following serum-withdrawal): ~500 nM |
| CCC(=O)N1CCN(c2ccc(-n3c(=O)ccc4cnc5ccc(-c6cnc7ccccc7c6)cc5c43)cc2C(F)(F)F)CC1 [Torinl, reference compound] |  |  |  |  |  | decreased phosphorylation of myrAktl |  |
| C[C@@H](CN1CCC(n2c(=O)[nH]c3cc(Cl)ccc32)CC1)NC(=O)c1ccc2ccccc2c1 [VU0155069, reference compound] |  |  |  |  |  |  | PtdBuOH production ([6]; U87MG glioblastoma cells, FIG. 28B): blocks PtdBuOH production |
